Measurements: PubChem BioAssay AID248 (DTP/NCI, 2004)
Several values for one entry are separate records, joined by “and”; a condition that tells them apart may be missing. Equal entries are not always repeated. Toxic doses and inconclusive results are not listed. No stated cut-off is given here; in the data, active means T/C of 150% or more; inactive means T/C below 125%.

Test system: L1210 leukemia ip in BDF1 mice, survival T/C
Test: NCI In Vivo Anticancer Drug Screen. Data for tumor model L1210 Leukemia (intraperitoneal) in B6D2F1 (BDF1) mice
Settings: endpoint: mean survival time, higher = longer survival
How it was run: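 Transplanted-tumor mice were given test agent; controls received vehicle only. Survival readings from the two groups were divided (treated over control).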

[1] = dose: 100.0 mg/kg/injection, schedule: Q01DX009 (ip), vehicle: Klucel (hydroxypropylcellulose) (HPC)
[2] = dose: 200.0 mg/kg/injection, schedule: Q01DX009 (ip), vehicle: Klucel (hydroxypropylcellulose) (HPC)
[3] = dose: 400.0 mg/kg/injection, schedule: Q01DX009 (ip), vehicle: Klucel (hydroxypropylcellulose) (HPC)
[4] = dose: 100.0 mg/kg/injection, schedule: Q01DX001 (ip), vehicle: carboxymethylcellulose (CMC)
[5] = dose: 200.0 mg/kg/injection, schedule: Q01DX001 (ip), vehicle: carboxymethylcellulose (CMC)
[6] = dose: 400.0 mg/kg/injection, schedule: Q01DX001 (ip), vehicle: carboxymethylcellulose (CMC)
[7] = dose: 12.5 mg/kg/injection, schedule: Q01DX009 (ip), vehicle: saline with Tween-80
[8] = dose: 25.0 mg/kg/injection, schedule: Q01DX009 (ip), vehicle: saline with Tween-80
[9] = dose: 50.0 mg/kg/injection, schedule: Q01DX009 (ip), vehicle: saline with Tween-80
[10] = dose: 100.0 mg/kg/injection, schedule: Q04DX003 (ip), vehicle: Klucel (hydroxypropylcellulose) (HPC)
[11] = dose: 200.0 mg/kg/injection, schedule: Q04DX003 (ip), vehicle: Klucel (hydroxypropylcellulose) (HPC)
[12] = dose: 400.0 mg/kg/injection, schedule: Q04DX003 (ip), vehicle: Klucel (hydroxypropylcellulose) (HPC)
[13] = dose: 100.0 mg/kg/injection, schedule: Q01DX001 (ip), vehicle: saline
[14] = dose: 200.0 mg/kg/injection, schedule: Q01DX001 (ip), vehicle: saline
[15] = dose: 400.0 mg/kg/injection, schedule: Q01DX001 (ip), vehicle: saline

Measured: T/C

CCCCCCCCCCCCCCCCCCNC(=O)Oc1ccc(Cl)c(C)c1
inactive: [1] 88 % of control | dose: 100.0 mg/kg/injection, schedule: Q04DX003 (ip), vehicle: gum acacia 88 % of control | [2] 92 % of control | dose: 200.0 mg/kg/injection, schedule: Q04DX003 (ip), vehicle: gum acacia 86 % of control | [3] 92 % of control | dose: 400.0 mg/kg/injection, schedule: Q04DX003 (ip), vehicle: gum acacia 89 % of control

COc1cccc(N(CCO)CCO)c1OC
inactive: dose: 3.75 mg/kg/injection, schedule: Q01DX Z (ip), vehicle: saline 93 % of control | dose: 7.5 mg/kg/injection, schedule: Q01DX Z (ip), vehicle: saline 93 % of control | dose: 15.5 mg/kg/injection, schedule: Q01DX Z (ip), vehicle: saline 97 % of control | dose: 31.0 mg/kg/injection, schedule: Q01DX Z (ip), vehicle: saline 97 % of control | dose: 62.5 mg/kg/injection, schedule: Q01DX Z (ip), vehicle: saline 96 % of control | dose: 125.0 mg/kg/injection, schedule: Q01DX Z (ip), vehicle: saline 101 % of control | dose: 250.0 mg/kg/injection, schedule: Q01DX Z (ip), vehicle: saline 97 % of control | dose: 500.0 mg/kg/injection, schedule: Q01DX Z (ip), vehicle: saline 101 % of control

CCCCS(=O)(=O)N1CCCCC1
inactive: dose: 100.0 mg/kg/injection, schedule: Q01DX009 (ip), vehicle: saline 107 % of control | dose: 200.0 mg/kg/injection, schedule: Q01DX009 (ip), vehicle: saline 95 % of control | dose: 400.0 mg/kg/injection, schedule: Q01DX009 (ip), vehicle: saline 106 % of control

CCOC(=O)/C=C(\C)Nc1ccc(NC(C)=O)cc1
inactive: dose: 50.0 mg/kg/injection, schedule: Q01DX009 (ip), vehicle: water 107 % of control | dose: 100.0 mg/kg/injection, schedule: Q01DX009 (ip), vehicle: water 121 % of control | dose: 100.0 mg/kg/injection, schedule: Q04DX003 (ip), vehicle: water 96 % of control | dose: 200.0 mg/kg/injection, schedule: Q01DX009 (ip), vehicle: water 98 % of control | dose: 200.0 mg/kg/injection, schedule: Q04DX003 (ip), vehicle: water 96 % of control | dose: 400.0 mg/kg/injection, schedule: Q01DX009 (ip), vehicle: water 100 % of control | dose: 400.0 mg/kg/injection, schedule: Q04DX003 (ip), vehicle: water 101 % of control

NNC(=O)CNc1ccc(F)cc1Cl
inactive: dose: 100.0 mg/kg/injection, schedule: Q04DX002 (ip), vehicle: Klucel (hydroxypropylcellulose) (HPC) 101 % of control | dose: 200.0 mg/kg/injection, schedule: Q04DX002 (ip), vehicle: Klucel (hydroxypropylcellulose) (HPC) 105 % of control

COc1cc(NC(=O)Nc2ccc(Cl)c(C(F)(F)F)c2)ccc1NC(C)=O
inactive: dose: 50.0 mg/kg/injection, schedule: Q01DX009 (ip), vehicle: carboxymethylcellulose (CMC) 96 % of control and 103 % of control | [4] 103 % of control and 105 % of control | dose: 100.0 mg/kg/injection, schedule: Q04DX002 (ip), vehicle: carboxymethylcellulose (CMC) 94 % of control | dose: 100.0 mg/kg/injection, schedule: Q04DX003 (ip), vehicle: carboxymethylcellulose (CMC) 101 % of control and 105 % of control | [5] 100 % of control and 102 % of control | dose: 200.0 mg/kg/injection, schedule: Q04DX002 (ip), vehicle: carboxymethylcellulose (CMC) 96 % of control and 90 % of control | dose: 200.0 mg/kg/injection, schedule: Q04DX003 (ip), vehicle: carboxymethylcellulose (CMC) 92 % of control and 99 % of control | [6] 97 % of control and 105 % of control | dose: 400.0 mg/kg/injection, schedule: Q04DX002 (ip), vehicle: carboxymethylcellulose (CMC) 96 % of control and 90 % of control | dose: 400.0 mg/kg/injection, schedule: Q04DX003 (ip), vehicle: carboxymethylcellulose (CMC) 92 % of control

CCN(CC)C(=O)c1ccc[n+](CC(=O)Nc2ccc(Cl)cc2)c1
inactive: [7] 97 % of control | dose: 12.5 mg/kg/injection, schedule: Q04DX003 (ip), vehicle: saline with Tween-80 100 % of control | [8] 97 % of control | dose: 25.0 mg/kg/injection, schedule: Q04DX003 (ip), vehicle: saline with Tween-80 94 % of control | [9] 97 % of control | dose: 50.0 mg/kg/injection, schedule: Q04DX003 (ip), vehicle: saline with Tween-80 103 % of control

COc1ccccc1OCC(C)=O
inactive: dose: 100.0 mg/kg/injection, schedule: Q01DX009 (ip), vehicle: saline with Tween-80 95 % of control | dose: 200.0 mg/kg/injection, schedule: Q01DX009 (ip), vehicle: saline with Tween-80 105 % of control | dose: 400.0 mg/kg/injection, schedule: Q01DX009 (ip), vehicle: saline with Tween-80 105 % of control

CC(=O)O/C=C\c1ccccc1
inactive: dose: 50.0 mg/kg/injection, schedule: Q01DX001 (ip), vehicle: carboxymethylcellulose (CMC) 104 % of control | [4] 98 % of control | [5] 107 % of control | [6] 98 % of control

CCOC(=O)c1c(N)sc(C)c1C
inactive: [10] 102 % of control | [11] 94 % of control | [12] 97 % of control

COC1=C(NCCc2ccc(OC)c(OC)c2)C(=O)C(OC)=C(NCCc2ccc(OC)c(OC)c2)C1=O
inactive: [13] 109 % of control | [14] 98 % of control | [15] 96 % of control

CC(=O)OC(Cc1nc2ccccc2s1)(C(F)(F)F)C(F)(F)F
inactive: dose: 3.13 mg/kg/injection, schedule: Q04DX002 (ip), vehicle: saline with Tween-80 97 % of control | dose: 6.25 mg/kg/injection, schedule: Q04DX002 (ip), vehicle: saline with Tween-80 91 % of control | dose: 12.5 mg/kg/injection, schedule: Q04DX002 (ip), vehicle: saline with Tween-80 97 % of control | dose: 25.0 mg/kg/injection, schedule: Q04DX002 (ip), vehicle: saline with Tween-80 94 % of control

CC1C2c3ccccc3C(c3ccccc32)C1S(=O)(=O)F (stereo not drawn)
inactive: [1] 97 % of control | [2] 100 % of control | [3] 106 % of control

CCCCCCC(C)NCC(C)(C)OC(=O)c1ccc(N)cc1 (stereo not drawn)
inactive: dose: 75.0 mg/kg/injection, schedule: Q01DX001 (ip), vehicle: other 93 % of control | dose: 150.0 mg/kg/injection, schedule: Q01DX001 (ip), vehicle: other 101 % of control | dose: 300.0 mg/kg/injection, schedule: Q01DX001 (ip), vehicle: other 93 % of control

Nc1nc2ncc(CNc3ccc(C(=O)NC(CCC(=O)O)C(=O)O)s3)nc2c(=O)[nH]1 (stereo not drawn)
inactive: [13] 95 % of control | [14] 101 % of control and 95 % of control | [15] 93 % of control and 90 % of control

CCCCCCCCCCCC(=O)NC(=S)Nc1ccc2ccccc2c1
inactive: [10] 86 % of control | [11] 86 % of control | [12] 86 % of control

CC(C)c1ccc(-n2c(=S)[nH]c3ccccc3c2=O)cc1
inactive: dose: 100.0 mg/kg/injection, schedule: Q04DX002 (ip), vehicle: saline 107 % of control | dose: 200.0 mg/kg/injection, schedule: Q04DX002 (ip), vehicle: saline 93 % of control | dose: 400.0 mg/kg/injection, schedule: Q04DX002 (ip), vehicle: saline 104 % of control

CCC(=O)c1ccc2c(c1)N(CCCN(C)C)c1ccccc1S2
inactive: dose: 6.25 mg/kg/injection, schedule: Q01DX009 (ip), vehicle: saline with Tween-80 98 % of control | [7] 96 % of control | [8] 115 % of control | [9] 107 % of control
